According to patent US12486489B2, “Culture medium for testing drug resistance of H.pylori as well as preparation method and use thereof” (priority 2022, dated 2025):
Like-named read-outs stand apart in the source and are kept apart here.

Key:
[1] = system: H. pylori; experiment: MIC of laboratory H. pylori strains by micro dilution method; assay type: cell-based; conditions: Helicobacter pylori
Protocol: (3) Preparation of bacterial solution: H. pylori grown in logarithmic phase on a solid plate is taken, BHI culture medium is used to prepare a bacterial suspension. The concentration of the bacterial solution is adjusted to 1×10^8 CFU/mL (OD600 is 0.3), diluted 10 times, 100 times, and 1000 times to implement a final concentration of […], for the subsequent use.
(4) Inoculation of bacterial solution: 10 μL of the above bacterial solution for the subsequent use is taken and added to wells the 1-10-th and the 12-th well (bacterial working concentration is 1×10^6 CFU/mL), the 11-th well serves as a non-bacterial control and only sterile water is added. The wells are cultivated for 72 hours to determine the results.

[2] = system: H. pylori; experiment: Verification of resistance breakpoint: growth of laboratory strains on Columbia solid culture medium with added antibiotics, 72 hours; assay type: cell-based, Helicobacter pylori
Protocol: The plates are cooled and inverted for approximately 10 mL/piece, marked properly for the subsequent use.
(2) Preparation of bacterial solution: H. pylori grown in logarithmic phase on a solid plate is taken to prepare a bacterial suspension by using BHI. The concentration OD600 is adjusted to 0.3 (1×10^8 CFU/mL), diluted 10 times for the subsequent use.
(3) Inoculation of bacterial solution: 10 μL of bacterial solution is taken and added to Columbia culture medium and the results are determined after cultivating for 72 hours.
(4) Result determination: the minimum drug concentration for no growth of bacteria on the plate is the minimum inhibitory concentration of the bacteria against the drug.

[3] = system: H. pylori; experiment: Drug resistance testing of laboratory strains on characteristic culture medium (discoloration after 36 hours); assay type: cell-based, Helicobacter pylori
Protocol: The characteristic culture media (A, B, C, D, E) are cultivated at a constant temperature of 37° C. for 36 hours in a three gas incubator. The characteristic culture media are removed and placed in a natural environment for 30 minutes to observe whether there are discolorations at the point of the culture medium where the specimen is dropped in. […] Another 100 μL of the specimen is taken and coated on Columbia solid culture medium and cultivated in a three gas incubator at a constant temperature of 37° C. for 3 days to 5 days. The number of colonies on the plate is counted to determine the initial inoculation amount. The micro dilution method is adopted to test the MIC of clinical specimen H. pylori, the test is meaningful only when there is no bacterial growth in the negative control well without bacteria and there is bacterial growth in the positive well with bacteria but without antibiotics. […] The results are recorded and whether the micro dilution method and characteristic culture medium are consistent with each other in evaluating the drug resistance of clinical H. pylori strains is compared. […]
(2) Inoculation of bacterial solution: 10 μL bacterial solution is taken and added dropwise onto a characteristic culture medium with 5 pieces (ABCDE) in total.
(3) Culture: all plates are moved to a three gas incubator and cultivated at 37° C. for 36 hours. After being taken out and placed in a natural environment for 30 minutes, whether the bacteria have resistance is determined based on the discoloration of the characteristic culture medium.

[4] = system: clinical H. pylori strain; experiment: MIC of clinical H. pylori strains by micro dilution method; assay type: cell-based; conditions: Helicobacter pylori, 72 h
Protocol: The characteristic culture media (A, B, C, D, E) are cultivated at a constant temperature of 37° C. for 36 hours in a three gas incubator. The characteristic culture media are removed and placed in a natural environment for 30 minutes to observe whether there are discolorations at the point of the culture medium where the specimen is dropped in. […] Another 100 μL of the specimen is taken and coated on Columbia solid culture medium and cultivated in a three gas incubator at a constant temperature of 37° C. for 3 days to 5 days. The number of colonies on the plate is counted to determine the initial inoculation amount. The micro dilution method is adopted to test the MIC of clinical specimen H. pylori, the test is meaningful only when there is no bacterial growth in the negative control well without bacteria and there is bacterial growth in the positive well with bacteria but without antibiotics.
H. pylori single colony grown on Colombian culture medium is taken (which is confirmed as H. pylori by urease, oxidase, catalase, and PCR testing of CagA gene, as illustrated in FIG. 13) and the bacteria are increased. During the preparation of MIC plates and bacterial solution, H. pylori with logarithmic growth phase is taken to prepare a bacterial suspension by using BHI. The concentration OD600 is adjusted to 0.3 (1×10^8 CFU/mL, diluted 10 times, 10 μL is taken and added to wells 1-8 (with a bacterial solution concentration of approximately 1.0×10^6 CFU/mL per well, cultivated for 72 hours to determine the results.

[5] = system: H. pylori; conditions: bacterial count 1×10^6 CFU/mL; cited from earlier work

CC[C@H]1OC(=O)[C@H](C)[C@@H](O[C@H]2C[C@@](C)(OC)[C@@H](O)[C@H](C)O2)[C@H](C)[C@@H](O[C@@H]2O[C@H](C)C[C@H](N(C)C)[C@H]2O)[C@](C)(OC)C[C@@H](C)C(=O)[C@H](C)[C@@H](O)[C@]1(C)O [Clarithromycin, clarithromycin] gave an MIC ([1]; read-out: MICs, standard sensitive strains G27 and 26695, bacterial count 1×10^6 CFU/mL) of 0.0312 to 0.0625 µg/mL, an MIC ([1]; read-out: minimum inhibitory concentration (MIC), strain 159, bacterial count 10^4 CFU/mL) of 0.0312 µg/mL and an MIC ([1]; read-out: minimum inhibitory concentration (MIC), strain 161, bacterial count 10^4 CFU/mL) of 0.5 µg/mL. It also gave an MIC ([1]; read-out: minimum inhibitory concentration (MIC), strain 161, bacterial count 10^6 CFU/mL (first line of the strain)) of 2 µg/mL, an MIC ([1]; read-out: minimum inhibitory concentration (MIC), strain 161, bacterial count 10^6 CFU/mL (second line of the strain)) of 1 µg/mL and an MIC ([1]; read-out: minimum inhibitory concentration (MIC), strain 162, bacterial count 10^4 CFU/mL) of 1 µg/mL. It also gave an MIC ([1]; read-out: minimum inhibitory concentration (MIC), strain 162, bacterial count 10^6 CFU/mL (first line of the strain)) of 8 µg/mL, an MIC ([1]; read-out: minimum inhibitory concentration (MIC), strain 162, bacterial count 10^6 CFU/mL (second line of the strain)) of 4 µg/mL and an MIC ([1]; read-out: minimum inhibitory concentration (MIC), strain 163, bacterial count 10^6 CFU/mL (first line of the strain)) of 0.5 µg/mL. It also gave an MIC ([1]; read-out: minimum inhibitory concentration (MIC), strain 163, bacterial count 10^6 CFU/mL (second line of the strain)) of 0.25 µg/mL, an MIC ([1]; read-out: minimum inhibitory concentration (MIC), strain 286, bacterial count 10^4 CFU/mL) of 1 µg/mL and an MIC ([1]; read-out: minimum inhibitory concentration (MIC), strain 286, bacterial count 10^6 CFU/mL (first line of the strain)) of 8 µg/mL. The MIC ([1]; read-out: minimum inhibitory concentration (MIC), strain 286, bacterial count 10^6 CFU/mL (second line of the strain)) was 4 µg/mL, the MIC ([1]; read-out: minimum inhibitory concentration (MIC), strain 287, bacterial count 10^4 CFU/mL) was 8 µg/mL and the MIC ([1]; read-out: minimum inhibitory concentration (MIC), strain 287, bacterial count 10^6 CFU/mL (first line of the strain)) was 4 µg/mL. For the same compound, the MIC ([1]; read-out: minimum inhibitory concentration (MIC), strain 287, bacterial count 10^6 CFU/mL (second line of the strain)) was 2 µg/mL, the MIC ([1]; read-out: minimum inhibitory concentration (MIC), strain 289, bacterial count 10^4 CFU/mL) was 2 µg/mL and the MIC ([1]; read-out: minimum inhibitory concentration (MIC), strain 289, bacterial count 10^6 CFU/mL (first line of the strain)) was 32 µg/mL. The MIC ([1]; read-out: minimum inhibitory concentration (MIC), strain 289, bacterial count 10^6 CFU/mL (second line of the strain)) was 8 µg/mL, the MIC ([1]; read-out: minimum inhibitory concentration (MIC), strain 290, bacterial count 10^4 CFU/mL) was 4 µg/mL and the MIC ([1]; read-out: minimum inhibitory concentration (MIC), strain 290, bacterial count 10^6 CFU/mL (first line of the strain)) was 16 µg/mL. For the same compound, the MIC ([1]; read-out: minimum inhibitory concentration (MIC), strain 290, bacterial count 10^6 CFU/mL (second line of the strain)) was 4 µg/mL, the MIC ([1]; resistant strains 159, 161, 162, 163, 286, 287, 289, and 290, bacterial count 1×10^6 CFU/mL, read-out: MICs) was 0.0625 to 8 µg/mL and the MIC ([1]; strain 159, bacterial count 10^6 CFU/mL (first line of the strain), read-out: minimum inhibitory concentration (MIC)) was 0.125 µg/mL. For the same compound, the MIC ([1]; strain 159, bacterial count 10^6 CFU/mL (second line of the strain), read-out: minimum inhibitory concentration (MIC)) was 0.0625 µg/mL, the MIC ([1]; strain 163, bacterial count 10^4 CFU/mL, read-out: minimum inhibitory concentration (MIC)) was 0.125 µg/mL and the MIC ([1]; strain 26695, bacterial count 10^6 CFU/mL (first line of the strain), read-out: minimum inhibitory concentration (MIC)) was 0.125 µg/mL. For the same compound, the MIC ([1]; strain 26695, bacterial count 10^6 CFU/mL (second line of the strain), read-out: minimum inhibitory concentration (MIC)) was 0.0625 µg/mL, the MIC ([1]; strain G27, bacterial count 10^4 CFU/mL, read-out: minimum inhibitory concentration (MIC)) was 0.0156 µg/mL and the MIC ([1]; strain G27, bacterial count 10^6 CFU/mL (first line of the strain), read-out: minimum inhibitory concentration (MIC)) was 0.0625 µg/mL. For the same compound, the MIC ([1]; strain G27, bacterial count 10^6 CFU/mL (second line of the strain), read-out: minimum inhibitory concentration (MIC)) was 0.0312 µg/mL, the “optimal concentration for adding antibiotics” value ([2]; conclusion of breakpoint verification) was 0.5 µg/mL and the “growth of sensitive strains” value ([2]; levofloxacin 0.5, clarithromycin 0.5, metronidazole 4, amoxicillin 0.5 μg/mL) was “no sensitive strain grows”. For the same compound, the growth of bacterial ([2]; strain 159, antibiotic 0.25 μg/mL) was “+”, the growth of bacterial ([2]; strain 159, antibiotic 0.5 μg/mL) was “+” and the growth of bacterial ([2]; strain 159, antibiotic 1 μg/mL) was “−”. The growth of bacterial ([2]; strain 161, antibiotic 0.25 μg/mL) was “+”, the growth of bacterial ([2]; strain 161, antibiotic 0.5 μg/mL) was “+” and the growth of bacterial ([2]; strain 161, antibiotic 1 μg/mL) was “−”. For the same compound, the growth of bacterial ([2]; strain 162, antibiotic 0.25 μg/mL) was “+”, the growth of bacterial ([2]; strain 162, antibiotic 0.5 μg/mL) was “+” and the growth of bacterial ([2]; strain 162, antibiotic 1 μg/mL) was “−”. The growth of bacterial ([2]; strain 163, antibiotic 0.25 μg/mL) was “−”, the growth of bacterial ([2]; strain 163, antibiotic 0.5 μg/mL) was “−” and the growth of bacterial ([2]; strain 163, antibiotic 1 μg/mL) was “−”. The growth of bacterial ([2]; strain 286, antibiotic 0.25 μg/mL) was “+”, the growth of bacterial ([2]; strain 286, antibiotic 0.5 μg/mL) was “+” and the growth of bacterial ([2]; strain 286, antibiotic 1 μg/mL) was “−”. The growth of bacterial ([2]; strain 287, antibiotic 0.25 μg/mL) was “+”, the growth of bacterial ([2]; strain 287, antibiotic 0.5 μg/mL) was “+” and the growth of bacterial ([2]; strain 287, antibiotic 1 μg/mL) was “−”. The growth of bacterial ([2]; strain 289, antibiotic 0.25 μg/mL) was “+”, the growth of bacterial ([2]; strain 289, antibiotic 0.5 μg/mL) was “+” and the growth of bacterial ([2]; strain 289, antibiotic 1 μg/mL) was “+”. For the same compound, the growth of bacterial ([2]; strain 290, antibiotic 0.25 μg/mL) was “+”, the growth of bacterial ([2]; strain 290, antibiotic 0.5 μg/mL) was “+” and the growth of bacterial ([2]; strain 290, antibiotic 1 μg/mL) was “−”. The growth of bacterial ([2]; strain 26695, antibiotic 0.25 μg/mL) was “+”, the growth of bacterial ([2]; strain 26695, antibiotic 0.5 μg/mL) was “−” and the growth of bacterial ([2]; strain 26695, antibiotic 1 μg/mL) was “−”. The growth of bacterial ([2]; strain G27, antibiotic 0.25 μg/mL) was “+”, the growth of bacterial ([2]; strain G27, antibiotic 0.5 μg/mL) was “−” and the growth of bacterial ([2]; strain G27, antibiotic 1 μg/mL) was “−”. For the same compound, the “drug resistance determined by discoloration of characteristic culture medium” value (from here on “drug resistance determined”) ([3]; strain 159, 1×10^6 CFU/mL) was “developed resistance”, the “drug resistance determined” value ([3]; strain 286, 1×10^6 CFU/mL) was “have developed resistance” and the “drug resistance determined” value ([3]; strain 287, 1×10^6 CFU/mL) was “have developed resistance”. The “drug resistance determined” value ([3]; strain 289, 1×10^6 CFU/mL) was “have developed resistance”, the “drug resistance determined” value ([3]; strain G27, 1×10^6 CFU/mL) was “does not develop resistance” and the MIC [4] was 0.125 µg/mL. It also gave an MIC ([4]; clinical strain FY-31, approximately 1.0×10^6 CFU/mL per well, 72 hours, read-out: MIC) of 0.0625 µg/mL, an MIC ([4]; clinical strain FY-47, approximately 1.0×10^6 CFU/mL per well, 72 hours, read-out: MIC) of 0.0625 µg/mL and an MIC ([4]; clinical strain FY-52, approximately 1.0×10^6 CFU/mL per well, 72 hours, read-out: MIC) of 0.25 µg/mL. The “resistance breakpoints of H. pylori according to CLSI guidelines” value [5] was 2 µg/mL.
